Assay: xn = mol fraction of the nth substance listed
Conditions: 101 kPa, Liquid; for viscosity: Capillary tube (Ostwald / Ubbelohde) method; for mass density: Vibrating tube method

NCCO [2-aminoethan-1-ol] + O
Conditions	mass density, 293.15 K [kg/m3]	mass density, 303.15 K [kg/m3]	mass density, 313.15 K [kg/m3]	mass density, 323.15 K [kg/m3]	mass density, 333.15 K [kg/m3]	viscosity, 293.15 K [mPa·s]	viscosity, 303.15 K [mPa·s]	viscosity, 313.15 K [mPa·s]	viscosity, 323.15 K [mPa·s]	viscosity, 333.15 K [mPa·s]
x1 = 0.1	1010.9	1007	1002.5	997.4	991.7	2.669	1.953	1.495	1.147	0.903
x1 = 0.1999	1021.1	1016	1010.6	1004.4	998	5.763	3.976	2.388	1.819	1.429
x1 = 0.2998	1027.1	1021	1014.3	1007.5	1000.5	10.28	6.221	4.011	3	2.268
x1 = 0.4	1029.4	1022.6	1015.5	1008.3	1000.8	15.22	9.814	6.589	4.621	3.387
x1 = 0.4998	1029.3	1022	1014.6	1007	999.4	19.75	12.4	8.077	5.671	4.071
x1 = 0.5995	1028.1	1020.3	1012.7	1004.9	997	22.83	14.17	9.474	6.412	4.784
x1 = 0.6982	1026.3	1018	1010.4	1002.8	994.9	24.37	15.25	10.05	7.035	4.978
x1 = 0.7974	1023.8	1015.1	1007.1	999.4	991.5	25.19	15.62	10.09	7.169	5.014
x1 = 0.8995	1021.2	1013	1005.1	997.2	988.1	24.62	15.17	10.08	7.12	5.001
x1 = 1	1016.9	1009.5	1001.1	992.7	984.3	23.79	14.83	9.89	6.872	4.99

CCN(CC)CCO [(diethylamino)ethanol] + NCCO
Conditions	mass density, 293.15 K [kg/m3]	mass density, 303.15 K [kg/m3]	mass density, 313.15 K [kg/m3]	mass density, 323.15 K [kg/m3]	mass density, 333.15 K [kg/m3]	viscosity, 293.15 K [mPa·s]	viscosity, 303.15 K [mPa·s]	viscosity, 313.15 K [mPa·s]	viscosity, 323.15 K [mPa·s]	viscosity, 333.15 K [mPa·s]
x2 = 0	891.2	874.4	865.4	856.4	845.6	4.848	3.41	2.466	1.855	1.431
x2 = 0.1003	897.2	881.4	869.8	859.4	849.2	6.52	3.543	2.619	1.952	1.568
x2 = 0.2004	906.9	892.2	881.6	871.1	861	8.275	3.892	2.982	2.149	1.746
x2 = 0.2993	920.7	906.2	897.8	887.6	879.7	10.42	4.495	3.501	2.658	2.107
x2 = 0.4003	931.6	918	910.5	901.2	891.8	12.32	5.526	4.04	2.925	2.426
x2 = 0.5001	941	929.9	920.1	910.2	902.3	13.76	6.483	4.629	3.314	2.767
x2 = 0.6001	952.2	942.1	935	926.9	915.8	15.98	7.382	5.072	3.651	3.007
x2 = 0.7007	965.8	954.2	944.6	935.9	927.9	17.27	8.567	5.754	4.046	3.273
x2 = 0.8001	981.8	971.6	963	954.3	946.2	19.77	10.57	7.21	4.954	3.651
x2 = 0.9	999.8	991.5	982.7	974.3	965.5	22.75	13.44	8.826	6.018	4.413

CCN(CC)CCO [(diethylamino)ethanol] + O
Conditions	mass density, 293.15 K [kg/m3]	mass density, 303.15 K [kg/m3]	mass density, 313.15 K [kg/m3]	mass density, 323.15 K [kg/m3]	mass density, 333.15 K [kg/m3]	viscosity, 293.15 K [mPa·s]	viscosity, 303.15 K [mPa·s]	viscosity, 313.15 K [mPa·s]	viscosity, 323.15 K [mPa·s]	viscosity, 333.15 K [mPa·s]
x1 = 0.1001	982	974.2	966.6	958.5	950.1	7.938	5.548	3.741	2.623	1.94
x1 = 0.2005	962.4	953	944.3	935	925.6	17.02	10.01	6.284	4.233	2.937
x1 = 0.2997	946.6	936.8	926.9	917.5	907.6	20.5	11.01	7.194	4.584	3.15
x1 = 0.3978	933.4	923.2	913.9	903.7	893.9	20.32	9.991	6.145	4.058	2.963
x1 = 0.4997	922.2	912	901.8	892	882.4	17.73	9.074	5.477	3.605	2.593
x1 = 0.5992	914.4	903.2	892.8	882.3	872.5	14.8	8.421	5.078	3.05	2.4
x1 = 0.6897	906.3	894.8	884.2	873.9	864.7	12.42	7.125	4.663	2.692	2.102
x1 = 0.7997	899.6	887.4	876.9	867.4	857.3	9.723	6.002	3.878	–	1.794
x1 = 0.8997	895.5	880.8	870.7	861.4	851.9	7.341	4.868	3.402	2.141	1.619
x1 = 1	891.2	874.4	865.4	856.4	845.6	4.848	3.41	2.466	1.855	1.431

Source: the NIST ThermoML archive (doi:10.1016/j.jct.2019.06.032)
